In patent US20200009029A1, “COSMETIC COMPOSITION COMPRISING WATER DEPLETED IN 2H AND 18O ISOTOPS” (MEDENA AG, priority 2016, published 2020):

Experiments:
[1] = Stability of verbascoside in merystem cell homogenate / carboxyl methyl cellulose mixture over thirty days (HPLC); assay type: physicochemical; conditions: 0.1 weight-% carboxyl methyl cellulose, initial 100 μM, darkness, 25° C., 30 days
Method: Merystem plant cells containing highly oxydisable active principles such as polyphenols (in this example verbascoside) were homogenized in ^18O and ^2H depleted (De-O,D) water having a concentration of 99.894 weight-% (and for comparison in distilled natural water). A hydrogel-forming substance, namely carboxyl methyl cellulose was added to the solutions in a concentration of 0.1 weight-%. The final concentration of verbascoside in the mixture was determined to be 100 μM by HPLC method using chromatographic standard of verbascoside. This concentration corresponds to 6 mg/100 ml or 0.006 weight-%. The maximum of the absorbance spectrum was obtained at 278 nm and retention time 15.65 min. The mixture was left in darkness at room temperature (25° C.) for thirty days. After this period, the mixture was analyzed for the presence and concentration of verbascoside.

[2] = Superoxide scavenging activity (antioxidant capacity), superoxide dismutase dependent reduction of cytochrome c; assay type: biochemical

SMILES: C[C@@H]1O[C@@H](O[C@@H]2[C@@H](O)[C@H](OCCc3ccc(O)c(O)c3)O[C@H](CO)[C@H]2OC(=O)/C=C/c2ccc(O)c(O)c2)[C@H](O)[C@H](O)[C@H]1O [verbascoside]
- presence and concentration of verbascoside after thirty days (HPLC) ([1]; mixture in 18O and 2H depleted (De-O,D) water): retained practically the initial levels
- presence and concentration of verbascoside after thirty days (HPLC) ([1]; mixture in distilled natural water): did not contain any measurable amounts
- superoxide scavenging activity (antioxidant capacity) ([2]; mixture in natural water, day 30): not measurable
- superoxide scavenging activity (antioxidant capacity) ([2]; mixture with De-O,D water, carboxy methyl cellulose and merystem cell homogenate, to day 30): remained practically unchanged
- superoxide scavenging activity (antioxidant capacity) ([2]; mixtures of Example 1, day 0): possessed superoxide scavenging activity
